Measurements taken from paper PMC10992195, “Identification, heterologous expression and characterization of a new unspecific peroxygenase from Marasmius fiardii PR-910” (Bioresources and Bioprocessing, 2024).
Counter-ions that a name gives are not always drawn. Like-named read-outs stand apart in the source and are kept apart here. Blank lines part the entries; values can stand above or below the compound they belong to.

Experiments:
rMfiUPO [1] = tested on: T1, rMfiUPO; conditions: 2 mM H2O2 co-substrate; 30 °C; optimal pH (pH 4.0 optimum in text; pH 4.5 sodium citrate in Fig. 4 legend)
T1 construct: gene MfiUPO

rMfiUPO [2] = tested on: T2, rMfiUPO; assay: spectrophotometric 4-nitrocatechol formation, […] nm, Michaelis-Menten fit; assay type: biochemical, Marasmius fiardii PR-910; conditions: 2 mM H2O2 co-substrate; 30 °C; pH 7.0 potassium phosphate
T2 construct: gene MfiUPO; full-length codon-optimised gene with native signal peptide, secreted by Pichia pastoris X33 (pPICZ-A); purified, glycosylated, 40-55 kDa smear, about 35 kDa after Endo H; short-type UPO, heme-thiolate

rMfiUPO [3] = tested on: T2, rMfiUPO; assay: spectrophotometric veratraldehyde formation, […] nm, Michaelis-Menten fit; assay type: biochemical, Marasmius fiardii PR-910; conditions: 2 mM H2O2 co-substrate; 30 °C; pH 6.0 potassium phosphate

Km (rMfiUPO [1]): 22 ± 7 µM
Structure (SMILES): CCn1c(=NN=c2sc3cc(S(=O)(=O)O)ccc3n2CC)sc2cc(S(=O)(=O)O)ccc21 [ABTS, 2,2ʹ-azinobis (3-ethylbenzothiazoline-6-sulfonic acid) diammonium salt]

Km (rMfiUPO [2]): 93 ± 14 µM
Structure (SMILES): O=[N+]([O-])c1ccc2c(c1)OCO2 [NBD, 5-nitro-1,3-benzodioxole]

Structure (SMILES): COc1ccc(CO)cc1OC [VA]
Km (rMfiUPO [3]): 392 ± 109 µM
